Assay results published in patent US12084473B2, “β-D-2′-deoxy-2′-α-fluoro-2′-β-C-substituted-2-modified-N6-substituted purine nucleotides for HCV treatment” (Atea Pharmaceuticals, Inc., priority 2015, dated 2024).
Where two headings read alike, the source gives them in different places.

What was measured:
[1] = system: human hepatocytes; experiment: Metabolic studies in primary hepatocytes; format: in vitro ADME; conditions: 10 μM, 2-24 hr
Protocol: The metabolism of compounds 25, 27 and 5-2, at a concentration of 10 μM, were investigated in fresh primary cultures of human, dog and mouse hepatocytes. Plated hepatocytes from humans (XenoTech, mixed gender, pooled from 10 donors), male Beagle dog (BioreclamationIVT), and male ICR/CD-1 mice (BioreclamationIVT, 8 donors) in 6-well plates with matrigel overlay were incubated in singlet with 10 μM TA. After 2, 4, 6, 8 or 24 hr, intracellular levels of nucleotide prodrugs and their potential metabolites (prodrugs, monophosphates, triphosphates and nucleosides) were quantitated by LC-MS/MS. Concentrations below the lower limit of quantitation (1.5 pmol/10^6 cells for prodrugs, monophosphates and nucleosides and 12 pmol/10^6 cells for triphosphates) were extrapolated from the standard curves.

[2] = system: HCV Genotype 4a, NS5B Mutation none; experiment: microbe, parasite or virus in culture; format: cell-based; conditions: for IC50: Hepatitis C virus, read-out: IC50 Value; for Fold Change in IC50 from Sofosbuvir / Fold Change in IC95 from Sofosbuvir / IC95 Value: genotype 4a, no NS5B mutation
Protocol: (§1) Various patient-derived HCV genotypes containing wild-type and resistance-associated variants were used to determine their relative replication sensitivity to test compounds. Replicon resistance test vectors (RTVs) containing the NS5B genomic regions were prepared using viral RNA isolated from plasma of HCV patients. Each NS5B region was amplified by reverse-transcription polymerase chain reaction and cloned into an HCV replicon RTV which was then transferred by electroporation into Huh-7 cells.

[3] = system: HCV Genotype 1a, NS5B Mutation none; experiment: microbe, parasite or virus in culture; format: cell-based; conditions: for IC50: Hepatitis C virus, read-out: IC50 Value; for Fold Change in IC50 from Sofosbuvir / Fold Change in IC95 from Sofosbuvir / IC95 Value: genotype 1a, no NS5B mutation
Protocol: as §1

[4] = system: HCV Genotype 1b, NS5B Mutation none; experiment: microbe, parasite or virus in culture; format: cell-based; conditions: for IC50: Hepatitis C virus, read-out: IC50 Value; for Fold Change in IC50 from Sofosbuvir / Fold Change in IC95 from Sofosbuvir / IC95 Value: genotype 1b, no NS5B mutation
Protocol: as §1

[5] = system: HCV Genotype 1a, NS5B Mutation L159F and S282T; experiment: microbe, parasite or virus in culture; format: cell-based; conditions: for IC50: Hepatitis C virus, read-out: IC50 Value; for Fold Change in IC50 from Sofosbuvir / Fold Change in IC95 from Sofosbuvir / IC95 Value: genotype 1a, NS5B L159F and S282T
Protocol: as §1

[6] = system: HCV Genotype 2b, NS5B Mutation none; experiment: microbe, parasite or virus in culture; format: cell-based; conditions: for IC50: Hepatitis C virus, read-out: IC50 Value; for Fold Change in IC50 from Sofosbuvir / Fold Change in IC95 from Sofosbuvir / IC95 Value: genotype 2b, no NS5B mutation
Protocol: as §1

[7] = system: HCV Genotype 1b, NS5B Mutation C316N; experiment: microbe, parasite or virus in culture; format: cell-based; conditions: for IC50: Hepatitis C virus, read-out: IC50 Value; for Fold Change in IC50 from Sofosbuvir / Fold Change in IC95 from Sofosbuvir / IC95 Value: genotype 1b, NS5B C316N
Protocol: as §1

[8] = system: HCV Genotype 2a, NS5B Mutation none; experiment: microbe, parasite or virus in culture; format: cell-based; conditions: for IC50: Hepatitis C virus, read-out: IC50 Value; for Fold Change in IC50 from Sofosbuvir / Fold Change in IC95 from Sofosbuvir / IC95 Value: genotype 2a, no NS5B mutation
Protocol: as §1

[9] = system: HCV Genotype 1a, NS5B Mutation L159F; experiment: microbe, parasite or virus in culture; format: cell-based; conditions: for IC50: Hepatitis C virus, read-out: IC50 Value; for Fold Change in IC50 from Sofosbuvir / Fold Change in IC95 from Sofosbuvir / IC95 Value: genotype 1a, NS5B L159F
Protocol: as §1

[10] = system: HCV Genotype 3a-2, NS5B Mutation none; experiment: microbe, parasite or virus in culture; format: cell-based; conditions: for IC50: Hepatitis C virus, read-out: IC50 Value; for Fold Change in IC50 from Sofosbuvir / Fold Change in IC95 from Sofosbuvir / IC95 Value: genotype 3a-2, no NS5B mutation
Protocol: as §1

[11] = system: HCV Genotype 3a-1, NS5B Mutation none; experiment: microbe, parasite or virus in culture; format: cell-based; conditions: for IC50: Hepatitis C virus, read-out: IC50 Value; for Fold Change in IC50 from Sofosbuvir / Fold Change in IC95 from Sofosbuvir / IC95 Value: genotype 3a-1, no NS5B mutation
Protocol: as §1

[12] = system: HCV Genotype 4d, NS5B Mutation none; experiment: microbe, parasite or virus in culture; format: cell-based; conditions: for IC50: Hepatitis C virus, 96 h, read-out: IC50 Value; for Fold Change in IC50 from Sofosbuvir / Fold Change in IC95 from Sofosbuvir / IC95 Value: genotype 4d, no NS5B mutation
Protocol: as §1

[13] = system: HCV wild type replicon; experiment: microbe, parasite or virus in culture; format: cell-based; conditions: for IC50: Hepatitis C virus, read-out: IC50 Value
Protocol: (§2) A transient transfection assay was performed to determine the sensitivity of the […] of HCV to test compounds. Huh-7 cells were electroporated in the presence of RNA transcribed from wild type or S282T HCV replicon plasmids from the T7 promoter. The transfected cells were seeded in to 96-well plates at 7.5×10^3 cells per well in Dulbecco's Modified Eagle's medium. After 24 hr of incubation, medium was removed and replaced with fresh medium containing no or various concentrations of test compounds. Following an additional 96-hr incubation, the anti-HCV activity was measured by luciferase endpoint with Britelite™ Plus luminescence reporter gene kit (Perkin Elmer, Shelton, CT). Duplicate plates were treated and incubated in parallel for assessment of cellular toxicity by staining with the tetrazolium dye XTT.

[14] = system: HCV S282T replicon; experiment: microbe, parasite or virus in culture; format: cell-based; conditions: for IC50: Hepatitis C virus, 96 h, read-out: IC50 Value; for Fold Change in IC50 from Sofosbuvir / Fold Change in IC95 from Sofosbuvir / IC95 Value: NS5B Mutation S282T; for IC95 Value: transient assay, 96-hr
Protocol: as §2

[15] = system: HCV genotype 1b luciferase reporter replicon; experiment: microbe, parasite or virus in culture; format: cell-based; conditions: Hepatitis C virus, HuH-7-Luc/Neo-ET, 72 h, read-out: HCV Replicon EC50/EC95: EC50
[16] = system: human bone marrow progenitor cells; experiment: Human Bone Marrow Progenitor Cell Assay; format: cell-based; conditions: 14-day incubations, colony counts
Protocol: Fresh human bone marrow progenitor cells (Invitrogen) suspended in either BFU-E or GM-CSF-specific culture medium were added, at 10^5 cells/well, to triplicate serial dilutions of TA in 6-well plates. After 14-day incubations, colony counts were used to determine CC50 values. BFU-E colonies were confirmed using the benzidene technique.

[17] = NS5B Mutation None, transient assay, 96-hr

SMILES: CNc1nc(N)nc2c1ncn2[C@@H]1OC(CO[P@@](=O)(N[C@@H](C)C(=O)OC(C)C)Oc2ccccc2)[C@@H](O)[C@@]1(C)F (stereo partly shown) [Compound 5-2]
- predominant metabolite observed in cultured human hepatocytes [1]: β-D-2′-deoxy-2′-α-fluoro-2′-β-methyl-guanine triphosphate
- IC50 [2]: 9.9 nM
- Fold Change in IC50 from Sofosbuvir [2]: 7.5
- Fold Change in IC95 from Sofosbuvir [2]: 9.2
- IC95 Value [2]: 74.4 nM
- IC50 [3]: 10.5 nM
- Fold Change in IC50 from Sofosbuvir [3]: 6.0
- Fold Change in IC95 from Sofosbuvir [3]: 8.4
- IC95 Value [3]: 60.8 nM
- IC50 [4]: 10.6 nM
- Fold Change in IC50 from Sofosbuvir [4]: 0.8
- Fold Change in IC95 from Sofosbuvir [4]: 8.9
- IC95 Value [4]: 72.4 nM
- cross-resistance to L159F and S282T mutant [5]: neither 25, 27 nor 5-2 compound showed any evidence of cross-resistance
- IC50 [5]: 38.7 nM
- Fold Change in IC50 from Sofosbuvir [5]: 41.9
- Fold Change in IC95 from Sofosbuvir [5]: 54.1
- IC95 Value [5]: 313.5 nM
- IC50 [6]: 6.3 nM
- Fold Change in IC50 from Sofosbuvir [6]: 7.1
- Fold Change in IC95 from Sofosbuvir [6]: 9.1
- IC95 Value [6]: 32.5 nM
- cross-resistance to C316N mutant [7]: neither 25, 27 nor 5-2 compound showed any evidence of cross-resistance
- IC50 [7]: 7.7 nM
- Fold Change in IC50 from Sofosbuvir [7]: 9.6
- Fold Change in IC95 from Sofosbuvir [7]: 11.1
- IC95 Value [7]: 42.7 nM
- IC50 [8]: 6.2 nM
- Fold Change in IC50 from Sofosbuvir [8]: 3.6
- Fold Change in IC95 from Sofosbuvir [8]: 4.3
- IC95 Value [8]: 45.4 nM
- cross-resistance to L159F mutant [9]: neither 25, 27 nor 5-2 compound showed any evidence of cross-resistance
- IC50 [9]: 13 nM
- Fold Change in IC50 from Sofosbuvir [9]: 8.8
- Fold Change in IC95 from Sofosbuvir [9]: 11.2
- IC95 Value [9]: 95.3 nM
- IC50 [10]: 10.4 nM
- Fold Change in IC50 from Sofosbuvir [10]: 11.9
- Fold Change in IC95 from Sofosbuvir [10]: 14.3
- IC95 Value [10]: 56.5 nM
- IC50 [11]: 11.8 nM
- Fold Change in IC50 from Sofosbuvir [11]: 10.7
- Fold Change in IC95 from Sofosbuvir [11]: 11.6
- IC95 Value [11]: 59.3 nM
- IC50 [12]: 14 nM
- Fold Change in IC50 from Sofosbuvir [12]: 6.7
- Fold Change in IC95 from Sofosbuvir [12]: 12.8
- IC95 Value [12]: 79.9 nM
- IC50 [13, 17]: 1.4 nM
- Fold Change in IC50 from Sofosbuvir ([13]; NS5B Mutation None): 26
- Fold Change in IC95 from Sofosbuvir ([13]; NS5B Mutation None): 22.2
- IC95 Value [13, 17]: 9.98 nM
- cross-resistance to S282T variant [14]: neither 25, 27, nor 5-2 compounds showed any evidence of cross-resistance
- IC50 [14]: 2.8 nM
- Fold Change in IC50 from Sofosbuvir [14]: 99.3
- Fold Change in IC95 from Sofosbuvir [14]: <48.5
- IC95 Value [14]: 20.6 nM
- EC50 [15]: 4 nM
- cytotoxicity against bone marrow stem cells in vitro [16]: no cytotoxicity

SMILES: CC(C)OC(=O)[C@H](C)N[P@](=O)(OCC1O[C@@H](n2cnc3c(N(C)C)nc(N)nc32)[C@](C)(F)[C@@H]1O)Oc1ccccc1 (stereo partly drawn) [Compound 25, isopropyl ((((S)-(2R,3R,4R,5R)-5-(2-amino-6-(dimethylamino)-9H-purin-9-yl)-4-fluoro-3-hydroxy-4-methyltetrahydrofuran-2-yl)methoxy)-phenoxy-phosphoryl)-L-alaninate]
- predominant metabolite observed in cultured human hepatocytes [1]: β-D-2′-deoxy-2′-α-fluoro-2′-β-methyl-guanine triphosphate
- IC50 [2]: 4.6 nM
- Fold Change in IC50 from Sofosbuvir [2]: 16.2
- Fold Change in IC95 from Sofosbuvir [2]: 20.7
- IC95 Value [2]: 33.0 nM
- IC50 [3]: 4.4 nM
- Fold Change in IC50 from Sofosbuvir [3]: 14.2
- Fold Change in IC95 from Sofosbuvir [3]: 16.2
- IC95 Value [3]: 31.3 nM
- IC50 [4]: 5.9 nM
- Fold Change in IC50 from Sofosbuvir [4]: 1.0
- Fold Change in IC95 from Sofosbuvir [4]: 20.0
- IC95 Value [4]: 32.0 nM
- cross-resistance to L159F and S282T mutant [5]: neither 25, 27 nor 5-2 compound showed any evidence of cross-resistance
- IC50 [5]: 17.2 nM
- Fold Change in IC50 from Sofosbuvir [5]: 94.0
- Fold Change in IC95 from Sofosbuvir [5]: 107.0
- IC95 Value [5]: 158.5 nM
- IC50 [6]: 3 nM
- Fold Change in IC50 from Sofosbuvir [6]: 15.2
- Fold Change in IC95 from Sofosbuvir [6]: 19.9
- IC95 Value [6]: 14.9 nM
- cross-resistance to C316N mutant [7]: neither 25, 27 nor 5-2 compound showed any evidence of cross-resistance
- IC50 [7]: 3.2 nM
- Fold Change in IC50 from Sofosbuvir [7]: 23.1
- Fold Change in IC95 from Sofosbuvir [7]: 26.2
- IC95 Value [7]: 18.1 nM
- IC50 [8]: 2.7 nM
- Fold Change in IC50 from Sofosbuvir [8]: 8.4
- Fold Change in IC95 from Sofosbuvir [8]: 8.8
- IC95 Value [8]: 22.2 nM
- cross-resistance to L159F mutant [9]: neither 25, 27 nor 5-2 compound showed any evidence of cross-resistance
- IC50 [9]: 5.2 nM
- Fold Change in IC50 from Sofosbuvir [9]: 22.0
- Fold Change in IC95 from Sofosbuvir [9]: 26.4
- IC95 Value [9]: 40.4 nM
- IC50 [10]: 4.7 nM
- Fold Change in IC50 from Sofosbuvir [10]: 26.3
- Fold Change in IC95 from Sofosbuvir [10]: 33.4
- IC95 Value [10]: 24.2 nM
- IC50 [11]: 5.1 nM
- Fold Change in IC50 from Sofosbuvir [11]: 24.5
- Fold Change in IC95 from Sofosbuvir [11]: 24.8
- IC95 Value [11]: 27.8 nM
- IC50 [12]: 5.9 nM
- Fold Change in IC50 from Sofosbuvir [12]: 16.0
- Fold Change in IC95 from Sofosbuvir [12]: 23.1
- IC95 Value [12]: 44.2 nM
- IC95 Value [13]: 2.7 nM
- IC50 ([13]; 96 h): < 1 nM
- Fold Change in IC50 from Sofosbuvir ([13]; NS5B Mutation None): >36.4
- Fold Change in IC95 from Sofosbuvir ([13]; NS5B Mutation None): 80.7
- cross-resistance to S282T variant [14]: neither 25, 27, nor 5-2 compounds showed any evidence of cross-resistance
- IC50 [14]: < 1 nM
- Fold Change in IC50 from Sofosbuvir [14]: >278
- Fold Change in IC95 from Sofosbuvir [14]: >106.4
- IC95 Value [14]: 9.4 nM
- EC50 [15]: 4 nM
- cytotoxicity against bone marrow stem cells in vitro [16]: no cytotoxicity
